Columns and labels:
[1] = tested on: AKT protein phosphorylated on serine 473 (P-AKT-S473); experiment: Study of pAKT expression in PC3 human prostate carcinoma cells measured by the MSD Multi-spot Biomarker Detection technique (Test B); assay type: cell-based; settings: PC-3, inhibition of AKT phosphorylation (P-AKT-S473), MSD sandwich immunoassay, 1 to 2 h incubation, absolute IC50, mean of 2 experiments
Procedure, shortened: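 Lysate P-AKT-S473 quantified by MSD electrochemiluminescent sandwich immunoassay; inhibition vs DMSO and cell-free background, IC50 averaged over 2 experiments.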

[2] = tested on: AKT protein phosphorylated on serine 473 (pAKT-S473); experiment: Study of pAKT expression in PC3 human prostate carcinoma cells measured by western blotting (Test A); assay type: cell-based; settings: PC-3, inhibition of AKT phosphorylation (pAKT-S473), 1 to 2 hours incubation, absolute IC50, mean of two experiments
Description: The inhibitory activity of the molecules on AKT phosphorylation is measured either by western blotting using the technique described below, or by the MSD Multi-spot Biomarker detection technique from Meso Scale Discovery also described below.
Study of pAKT Expression in PC3 Human Prostate Carcinoma Cells Measured by Western Blotting (Test A):
On day 2, the cells are incubated in the presence or absence of the test products for 1 to 2 hours at 37° C. in the presence of 5% CO2. The molecules, diluted in dimethyl sulphoxide (DMSO Sigma #D2650), are added from a 10-times concentrated stock solution, the final percentage of DMSO being 0.1%. The molecules are tested either at a single concentration of less than or equal to 10 μM, or at increasing concentrations in a range that can extend from less than 1 nM to 10 μM.
After this incubation, the cells are lysed for the preparation of the proteins.
The lysate is centrifuged for 10 min at 6000 rpm. 155 μl of supernatant are recovered. 150 μl are incubated for denaturation for 5 min at 95° C. in the presence of 4× NuPAGE LDS Sample Buffer diluted 4-fold (InVitrogen ref NP0007) and of 10× NuPAGE Sample Reducing Agent diluted 10-fold (InVitrogen ref NP0009). These samples are then frozen at −20° C.
The gel is then transferred on to an Invitrolon PVDF membrane (Invitrogen #LC2007) permeabilised beforehand and for a few seconds in ethanol (Ethanol Fischer Scientific #E/0600DF/15).
The transfer is carried out in a Biorad tank at 30 volts overnight or at 60 volts for 3 hours, in the presence of 20× NUPAGE Transfer Buffer diluted 20-fold (InVitrogen ref NP0006).
The membrane is then saturated in saturating solution composed of TBS (10× Tris Buffered Saline, Sigma #T5912, diluted 10-fold), 0.1% Tween (Sigma #P5927) and 3% BSA (Bovine Albumin Serum Fraction V, Sigma #A4503) for 6 h after overnight transfer or else for 1 h after transfer for a period of 3 h.
Two rinses for min in washing solution composed of TBS and 0.1% Tween 20 are carried out before hybridisation of the secondary antibodies.
The secondary antibodies are diluted 110000th for the rabbit anti-Mouse IgG HRP antibody (W402 Promega) and to 110000th for the goat anti-Rabbit IgG HRP antibody (W401 Promega) in saturating solution, and then shaken for 1 h at ambient temperature.
Two rinses for 30 min in washing solution are carried out and then a rinse for 5 min in H2O is carried out in order to eliminate the remaining Tween 20.
The luminescence is read with the FujiFilm device (Ray Test).
The FUJI device measures the total luminescence signal obtained (AU) for each band selected. It then subtracts the background noise (BG) proportional to the size of the band selected (Area), said background noise being calculated from a specific background noise band, with a view to obtaining the specific signal (AU-BG) for each band. The band obtained in the absence of product and in the presence of 0.1% DMSO is considered to be the 100% signal. The software calculates the % specific activity (Ratio) obtained for each band selected as a function of this 100% signal. The percentage inhibition is calculated for each concentration according to the formula (100%−Ratio).
Two independent experiments make it possible to calculate the mean of the percentages of inhibition obtained at a given concentration for the products tested only at one concentration.
Two independent experiments make it possible to calculate the mean of the IC50s.

Row | Structure (SMILES) | IC50 [1] [nM] | melting point [°C] | IC50 [2] [nM]
1 | O=C(Cc1nc(N2CCOCC2)cc(=O)[nH]1)Nc1cc(F)cc(F)c1 [Example 13, N-(3,5-difluorophenyl)-2-[4-(morpholin-4-yl)-6-oxo-1,6-dihydropyrimidin-2-yl]acetamide] | 71 | > 260 | 
2 | CCn1c(CC(=O)Nc2ccc(F)cc2)nc(N2CCOCC2)cc1=O [Example 70, 2-[1-ethyl-4-(morpholin-4-yl)-6-oxo-1,6-dihydropyrimidin-2-yl]-N-(4-fluorophenyl)acetamide] | 195 | 238 | 
3 | O=C(Cc1nc(N2CCOCC2)cc(=O)[nH]1)Nc1cccc2[nH]ccc12 [Example 71, N-(1 H-indol-4-yl)-2-[4-(morpholin-4-yl)-6-oxo-1,6-dihydropyrimidin-2-yl]acetamide] | 120 |  | 5380
4 | CC(C)C(C(=O)Nc1ccc(F)cc1)c1nc(N2CCOCC2)cc(=O)[nH]1 (centres unmarked) [Example 72, N-(4-fluorophenyl)-3-methyl-2-[4-(morpholin-4-yl)-6-oxo-1,6-dihydropyrimidin-2-yl]butanamide] | 89 | 266 | 
5 | O=C(Cc1nc(N2CCOCC2)cc(=O)[nH]1)Nc1cccc(OC(F)(F)C(F)F)c1 [Example 75, 2-[4-(morpholin-4-yl)-6-oxo-1,6-dihydropyrimidin-2-yl]-N-[3-(1,1,2,2-tetrafluoroethoxy)phenyl]acetamide] | 69 | 229 | 
6 | Cn1c(CC(=O)Nc2cccc(C3CC3)c2)nc(N2CCOCC2)cc1=O [Example 82, N-(3-cyclopropylphenyl)-2-[1-methyl-4-(morpholin-4-yl)-6-oxo-1,6-dihydropyrimidin-2-yl]acetamide] | 133 | 216 | 
7 | Cn1c(CC(=O)Nc2ccc(F)c(C3CC3)c2)nc(N2CCOCC2)cc1=O [Example 86, N-(3-cyclopropyl-4-fluorophenyl)-2-[1-methyl-4-(morpholin-4-yl)-6-oxo-1,6-dihydropyrimidin-2-yl]acetamide] | 26 | 245 | 
8 | Cn1c(CC(=O)N2CCc3c(F)cccc32)nc(N2CCOCC2)cc1=O [Example 102, 2-[2-(4-fluoro-2,3-dihydro-1H-indol-1-yl)-2-oxoethyl]-3-methyl-6-(morpholin-4-yl)pyrimidin-4(3H)-one] | 43 | 244 | 
9 | Cn1c(CC(=O)N2CCc3c(Cl)cccc32)nc(N2CCOCC2)cc1=O [Example 104, 2-[2-(4-chloro-2,3-dihydro-1H-indol-1-yl)-2-oxoethyl]-3-methyl-6-(morpholin-4-yl)pyrimidin-4(3H)-one] | 42 | 235 | 
10 | O=C(Cc1nc(N2CCOCC2)cc(=O)[nH]1)N1c2ccccc2CC1CO (centres unmarked) [Example 106, 2-{2-[2-(hydroxymethyl)-2,3-dihydro-1 H-indol-1-yl]-2-oxoethyl}-6-(morpholin-4-yl)pyrimidin-4(3H)-one] | 27 | 200 | 
11 | COc1cccc2c1CCN2C(=O)Cc1nc(N2CCOCC2)cc(=O)n1C [Example 110, 2-[2-(4-methoxy-2,3-dihydro-1H-indol-1-yl)-2-oxoethyl]-3-methyl-6-(morpholin-4-yl)pyrimidin-4(3H)-one] | 278 | 229 | 
12 | O=C(Cc1nc(N2CCOCC2)cc(=O)[nH]1)N1CCc2ccccc2C1 [Example 111, 2-[2-(3,4-dihydroisoquinolin-2(1H)-yl)-2-oxoethyl]-6-(morpholin-4-yl)pyrimidin-4(3H)-one] | 301 | 107.5 | 
13 | Cc1cccc2c1CCN2C(=O)Cc1nc(N2CCOCC2)cc(=O)n1C [Example 114, 3-methyl-2-[2-(4-methyl-2,3-dihydro-1H-indol-1-yl)-2-oxoethyl]-6-(morpholin-4-yl)pyrimidin-4(3H)-one] | 26 | 239 | 
14 | CN(C)CC1CN(C(=O)Cc2nc(N3CCOCC3)cc(=O)[nH]2)c2ccccc21 (centres unmarked) [Example 115, 2-[2-(3-dimethylaminomethyl-2,3-dihydroindol-1-yl)-2-oxoethyl]-6-morpholin-4-yl-3H-pyrimidin-4-one] | 10 | 243 | 
15 | Cn1c(CC(=O)N2CCc3c(Br)cccc32)nc(N2CCOCC2)cc1=O [Example 116, 2-[2-(4-bromo-2,3-dihydro-1 H-indol-1-yl)-2-oxoethyl]-3-methyl-6-(morpholin-4-yl)pyrimidin-4(3H)-one] | 51 | 226 | 
16 | CC1CN(C(=O)Cc2nc(N3CCOCC3)cc(=O)n2C)c2ccccc21 (centres unmarked) [Example 119, 3-methyl-2-[2-(3-methyl-2,3-dihydro-1H-indol-1-yl)-2-oxoethyl]-6-(morpholin-4-yl)pyrimidin-4(3H)-one] | 194 | 225 | 
17 | COCC1Cc2ccccc2N1C(=O)Cc1nc(N2CCOCC2)cc(=O)[nH]1 (centres unmarked) [Example 120, 2-{2-[2-(methoxymethyl)-2,3-dihydro-1H-indol-1-yl]-2-oxoethyl}-6-(morpholin-4-yl)pyrimidin-4(3H)-one] | 11 | 112 to 115 | 
18 | CCOc1cccc2c1CCN2C(=O)Cc1nc(N2CCOCC2)cc(=O)[nH]1 [Example 121, 2-[2-(4-ethoxy-2,3-dihydro-1H-indol-1-yl)-2-oxoethyl]-6-(morpholin-4-yl)pyrimidin-4(3H)-one] | 44 | 257 | 
19 | CC1Cc2ccccc2N1C(=O)Cc1nc(N2CCOCC2)cc(=O)n1C (centres unmarked) [Example 123, 3-methyl-2-[2-(2-methyl-2,3-dihydro-1H-indol-1-yl)-2-oxoethyl]-6-(morpholin-4-yl)pyrimidin-4(3H)-one] | 77 | 148 | 
20 | Cn1c(CC(=O)N2CCc3ccc(F)cc32)nc(N2CCOCC2)cc1=O [Example 124, 2-[2-(6-fluoro-2,3-dihydro-1H-indol-1-yl)-2-oxoethyl]-3-methyl-6-(morpholin-4-yl)pyrimidin-4(3H)-one] | 124 | 223 | 
21 | Cn1c(CC(=O)N2CCc3cc(F)c(F)cc32)nc(N2CCOCC2)cc1=O [Example 127, 2-[2-(5,6-difluoro-2,3-dihydro-1H-indol-1-yl)-2-oxoethyl]-3-methyl-6-(morpholin-4-yl)pyrimidin-4(3H)-one] | 61 | 250 | 
22 | Cn1c(CC(=O)Nc2cccc3sccc23)nc(N2CCOCC2)cc1=O [Example 130, N-(1-benzothiophen-4-yl)-2-[1-methyl-4-(morpholin-4-yl)-6-oxo-1,6-dihydropyrimidin-2-yl]acetamide] | 70 | 254 | 
23 | O=C(Cc1nc(N2CCOCC2)cc(=O)[nH]1)N1CCCc2c(Cl)cccc21 [Example 131, 2-[2-(5-chloro-3,4-dihydroquinolin-1(2H)-yl)-2-oxoethyl]-6-(morpholin-4-yl)pyrimidin-4(3H)-one] | 41 | 238 | 
24 | O=C(Cc1nc(N2CCOCC2)cc(=O)[nH]1)N1CCc2c(CO)cccc21 [Example 132, 2-{2-[4-(hydroxymethyl)-2,3-dihydro-1H-indol-1-yl]-2-oxoethyl}-6-(morpholin-4-yl)pyrimidin-4(3H)-one] | 533 | 234 | 
25 | CN(C)C[C@H]1CN(C(=O)Cc2nc(N3CCOCC3)cc(=O)[nH]2)c2ccccc21 [Example 136, 2-(2-{(3S)-3-[(dimethylamino)methyl]-2,3-dihydro-1H-indol-1-yl}-2-oxoethyl)-6-(morpholin-4-yl)pyrimidin-4(3H)-one] | 26 | 256 | 

Reference: patent US8993565B2, “(6-oxo-1,6-dihydropyrimidin-2-yl)amide derivatives, preparation thereof and pharmaceutical use thereof as AKT(PKB) phosphorylation inhibitors” (Sanofi, priority 2009, dated 2015)
